Test results published in publication PMC5478869, “New Hydroxycinnamic Acid Esters as Novel 5-Lipoxygenase Inhibitors That Affect Leukotriene Biosynthesis” (Mediators of Inflammation, 2017).
Entries after “also recorded” stand apart in the source; their conditions may differ.

What was measured:
[1] = biological target: T1, 5-LO (Homo sapiens, UniProt P09917); test: Biosynthesis of 5-LO products in HEK293 cells expressing 5-LO and FLAP (A23187 + arachidonic acid); format: cell-based; parameters: expressed in transfected cells; host or cells: HEK293; details: 1 μM compound, 10 μM A23187 + 10 μM arachidonic acid, 15 min
T1 sequence (P09917 1-674): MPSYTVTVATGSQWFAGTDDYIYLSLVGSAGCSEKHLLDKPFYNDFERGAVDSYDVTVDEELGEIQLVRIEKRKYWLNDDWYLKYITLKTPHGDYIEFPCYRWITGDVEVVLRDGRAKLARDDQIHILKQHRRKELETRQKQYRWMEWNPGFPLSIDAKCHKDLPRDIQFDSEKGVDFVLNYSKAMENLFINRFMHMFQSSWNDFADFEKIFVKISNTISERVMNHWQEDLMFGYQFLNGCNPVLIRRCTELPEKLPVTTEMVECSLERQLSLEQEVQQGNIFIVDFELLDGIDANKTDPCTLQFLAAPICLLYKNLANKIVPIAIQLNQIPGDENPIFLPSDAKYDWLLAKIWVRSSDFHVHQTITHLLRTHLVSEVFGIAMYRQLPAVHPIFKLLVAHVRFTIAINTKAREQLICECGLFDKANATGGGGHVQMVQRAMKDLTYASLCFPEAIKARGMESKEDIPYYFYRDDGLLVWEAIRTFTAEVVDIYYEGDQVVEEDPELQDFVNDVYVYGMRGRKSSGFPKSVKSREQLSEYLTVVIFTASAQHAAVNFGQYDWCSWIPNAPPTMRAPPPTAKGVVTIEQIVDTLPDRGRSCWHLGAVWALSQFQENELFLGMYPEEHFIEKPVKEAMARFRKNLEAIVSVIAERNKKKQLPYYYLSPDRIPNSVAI
Description: HEK293 cells expressing both 5-LO and the 5-lipoxygenase activating protein (FLAP) were generated as previously reported. For cell stimulation of 5-LO products, transfected HEK293 cells were collected following trypsinization and washed and the cell pellet was resuspended in Hank's balanced salt solution (HBSS, Lonza) containing 1.6 mM CaCl2 at a concentration of 5 × 10^5 cells/ml. Cells were preincubated with each compound at the indicated concentration for 5 min at 37°C. Cells were then stimulated for 15 minutes at 37°C with the addition of 10 μM calcium ionophore A23187 (Sigma-Aldrich) and 10 μM arachidonic acid (Cayman Chemical). Stimulations were stopped by adding 0.5 volume of cold MeOH:MeCN (1 : 1) containing 100 ng/ml of 19-OH prostaglandin B2 (PGB2) as internal standard. Samples were then processed and 5-LO products were analyzed by reversed-phase high-performance liquid chromatography (RP-HPLC) as described previously.
To evaluate CAPE analogues as potential inhibitors of the biosynthesis of 5-LO products, a first series of experiments was performed in HEK293 cells expressing both 5-LO and FLAP as previously described. HEK293 cells were first preincubated with the test compounds (1 μM), then stimulated in the presence of arachidonic acid and calcium ionophore A23187 to induce the biosynthesis of 5-LO products (Figure 2(a)). […] Based on these criteria, compounds 9, 13, 14, 15, 16, and 19 were selected for subsequent analyses.
(§1) Figure 2 Effect of the test compounds on the biosynthesis of 5-LO products in transfected HEK293 cells (a) and thapsigargin-stimulated PMNL (b). (a) HEK293 cells expressing both 5-LO and FLAP were incubated in presence of the indicated compounds (1 μM) or their diluent (control, 0.5% DMSO) for 5 min, then biosynthesis of 5-LO products was initiated with the addition of 10 μM calcium ionophore A23187 and 10 μM arachidonic acid for 15 min. After stimulation, reactions were stopped and samples were processed for analysis of 5-LO products by RP-HPLC. Total 5-LO products measured represent the sum of LTB4, its trans isomers, and 5-hydroxyeicosatetraenoic acid. (b) Freshly isolated human PMNL were incubated in presence of test compounds (or their diluent control, DMSO 0.5%) at the indicated concentrations for 5 min. Biosynthesis of the 5-LO products was initiated with the addition of 1 μM of thapsigargin, followed by a 15 min incubation period at 37°C. The stimulation was then stopped and samples were processed for RP-HPLC analysis and total 5-LO products quantification. Total 5-LO products measured represent the sum of LTB4, its trans isomers, 20-COOH- and 20-OH-LTB4 and 5-hydroxyeicosatetraenoic acid. Data are expressed as means ± SEM of at least 3 independent experiments. ^∗Different from control, as determined by one-way ANOVA with Dunnett's multiple comparison test (p < 0.05).

[2] = biological target: T1, 5-LO; test: Biosynthesis of 5-LO products by thapsigargin-stimulated PMNL; format: cell-based; parameters: endogenous in cells; host or cells: human polymorphonuclear leukocytes (PMNL) isolated from whole blood; details: freshly isolated human PMNL, 5 min preincubation, 1 μM thapsigargin 15 min; 95% CI in brackets; read-out: IC50 (95% CI) for the inhibition of 5-LO product biosynthesis in human PMNL
Description: Polymorphonuclear leukocytes (PMNL) were isolated as previously described. Briefly, whole blood was collected (with anticoagulant citrate dextrose (ACD)) and then centrifuged at 500 g for 10 min. Platelet-rich plasma (PRP) was set aside for platelet isolation (see below), and erythrocytes were removed by dextran sedimentation. After a centrifugation step at 900 g × 20 min at room temperature on a lymphocyte separation medium cushion (density, 1.077 g/ml) (Wisent), PMNL were obtained (>96%) followed by hypotonic lysis of the remaining erythrocytes. PMNL were counted and resuspended at 10^7 cells/ml in HBSS supplemented with 1.6 mM CaCl2. PRP was processed as previously described for platelet isolation. Briefly, PRP was centrifuged at 400 g for 2 min at room temperature to remove the remaining erythrocytes. The supernatant was then centrifuged at 1300g for 10 min to pellet platelets. Cells were resuspended in Tyrode Buffer pH 7.4 (134 mM NaCl, 2.9 mM KCl, 0.34 mM Na2HPO4, 12 mM NaHCO3, 20 mM HEPES, 1 mM MgCl2, 5 mM glucose, and 0.5 mg/ml BSA) at 3 × 10^8 cells/ml in the presence of 5 mM CaCl2.
Suspended PMNL (10^7 cells/ml) were incubated at 37°C with adenosine deaminase (0.3 U/ml, Sigma-Aldrich) and test compounds at indicated concentrations 5 min before stimulation. To initiate stimulation, 1 μM of thapsigargin (Sigma-Aldrich) was added to cells which were then incubated for 15 min at 37°C [31]. Two volumes of MeOH:MeCN (1 : 1) containing the internal standard PGB2 (100 ng/ml) was then added, and samples were processed for RP-HPLC analysis as described above.
Statistical analysis and graph design were performed with GraphPad Prism 5 software (GraphPad Software, San Diego, California). IC50 values were calculated from a sigmoidal concentration-response curve-fitting model and are expressed as means with 95% confidence intervals. All other data are expressed as mean ± SEM. One-way ANOVA with Dunnett's multiple comparison test (p < 0.05) were performed to determine significant difference from controls.
as §1

[3] = tested on: PMNL; test: Annexin V labelling of PMNL (early apoptosis); format: cell-based, human; details: 20 min incubation at 37°C
Excerpt: A positive control with 10% EtOH is shown to validate the assay.

SMILES | Inhibition of biosynthesis of 5-LO products in transfected HEK293 cells [1] | IC50 [2] [µM] | Induction of early apoptosis of PMNL (annexin V labelling) [3]
O=C(/C=C/c1ccc(O)c(O)c1)OCCc1ccccc1 [CAPE (2), Caffeic acid phenethyl ester, reference compound] | significantly inhibited the biosynthesis of 5-LO products | 0.79 | 
C=C(C)CCOC(=O)/C=C/c1ccc(O)c(O)c1 [Compound 9] | showed similar or better inhibitory activity than the reference compound CAPE (2), or decreased the biosynthesis of 5-LO products by more than 50%; also recorded: best inhibitory activity amongst the compounds from the aliphatic series | 0.87 | 
O=C(/C=C/c1ccc(O)c(O)c1)OCCCc1ccccc1 [Compound 13] | showed similar or better inhibitory activity than the reference compound CAPE (2), or decreased the biosynthesis of 5-LO products by more than 50% | 0.49 | did not induce early apoptosis of PMNL
O=C(/C=C/c1ccc(O)c(O)c1)OCCc1ccc(F)cc1 [Compound 14] | showed similar or better inhibitory activity than the reference compound CAPE (2), or decreased the biosynthesis of 5-LO products by more than 50% | 1.01 | 
Cc1ccc(CCOC(=O)/C=C/c2ccc(O)c(O)c2)cc1 [Compound 15] | showed similar or better inhibitory activity than the reference compound CAPE (2), or decreased the biosynthesis of 5-LO products by more than 50% | 1.04 | 
COc1ccc(CCOC(=O)/C=C/c2ccc(O)c(O)c2)cc1 [Compound 16] | showed similar or better inhibitory activity than the reference compound CAPE (2), or decreased the biosynthesis of 5-LO products by more than 50% | 1.29 | 
O=C(/C=C/c1ccc(O)c(O)c1)OCC(c1ccccc1)c1ccccc1 [Compound 19] | showed similar or better inhibitory activity than the reference compound CAPE (2), or decreased the biosynthesis of 5-LO products by more than 50% | 0.53 | 
